Values of other authors as cited in US11878022B2 (Novitium Pharma LLC, priority 2020, dated 2024).

Columns and labels:
[1] = in vivo
[2] = in vivo; remark: listed apart in the source

For `NS(=O)(=O)c1cc2c(cc1Cl)NCNS2(=O)=O` [Hydrochlorothiazide, 6-Chloro-3,4-dihydro-2H-1,2,4-benzothiadiazine-7-sulfonamide-1,1-dioxide], the “Onset of action after dosing” value [1] is listed as at most 2 h, the persistence of activity [1] is listed as “up to 24 hours” and the “time of peak effect” value [1] is listed as “about 4 hours”. The “Binding to serum proteins” value [2] was 40-68% and the “absorbed dose excreted in urine as unchanged drug” value ([2]; po) was “greater than 95%”.
